Tested on: S180 ascites
Assay: Anti-tumor evaluation: % increase in life span (% ILS) and survivors, S180 ascites in female CFW Swiss mice
Type: in vivo
Experimental: The above-prepared compounds were evaluated against S180 ascites in female CFW Swiss mice. The mice were weighed (average weight: 20 g), placed into cages (four or six mice to a cage), and on day zero the mice were inoculated with 0.2 ml of a freshly prepared saline suspension (0.15 M NaCl) containing 1×10^7 tumor cells/ml or a total of 2×10^6 cells This inoculum was freshly prepared using "transfer" mice, which had been injected with tumor cells the previous week; it was obtained via the following steps: (1) the removal of cells from the peritoneal cavity of the sacrificed transfer mouse, (2) alternate centrifugation and washing operations (2-3 times with cold saline) to remove blood and other components, and (3) dilution of the volume of the packed cell with saline (1:3). A final centrifugation was carried out at 1000 RPM over a two minute period. A cell count was made on a 2,000-fold dilution of this 1:3 suspension by means of a Coulter Counter. A final dilution to 1×10^7 cells/ml was made, based on the average count.
On day 1, solutions of the test compounds were prepared, and each mouse in a set of four or six were injected with the same test compound at the same dosage. The doses were based on the average weight of the animals (cage weight). Also, beginning on day 1, two controls were employed containing six mice per control:
(1) Normal Control: This consisted solely of the carrier or diluent used in combination with the test compound; and
(2) Positive Control: This consisted solely of known anti-tumor agent cis-[Pt(NH3)2 Cl2 ] in saline (8 mg/kg) to test the response of the biological system.
The effectiveness of a test compound was measured in terms of the % increase in life span (%ILS) of the test mice relative to the Normal Control (Calculated from the day of tumor inoculation, i.e., day zero). To standardize the test data and permit intercomparisons, the day of evaluation was arbitrarily taken as that day corresponding to twice the mean life span (or average day of death) of the control. This established a practical upper limit of 100% on the %ILS attainable. For calculation purposes, the survivors of the day of evaluation were considered to have died on that day. The %ILS was calculated as follows: [formula] ILS values in excess of 50% were interpreted as antitumor activity, whereas values in excess of 75% indicated excellent antitumor activity.
All test compounds were evaluated in water containing 0.1-0.3% of the suspending agent "Klucel" (hydroxypropylcellulose).
Tables 3 and 4, infra, show the criticality of the ring size and the thiocyanato substituents, respectively. The protocols for determining effectiveness for the products in Tables 3 and 4 were identical to the procedure employed for determining the anti-tumor effectiveness of the products in Table 2.

[1] = dose 5 mg/kg, on day of evaluation (twice mean life span of control)
[2] = dose 10 mg/kg, on day of evaluation
[3] = dose 20 mg/kg, on day of evaluation
[4] = dose 40 mg/kg, on day of evaluation
[5] = dose 80 mg/kg, on day of evaluation
[6] = dose 160 mg/kg, on day of evaluation
[7] = dose 320 mg/kg, on day of evaluation

SMILES | % ILS (dose 5 mg/kg) [%] | Survivors [1] | % ILS (dose 10 mg/kg) [%] | Survivors [2] | % ILS (dose 20 mg/kg) [%] | Survivors [3] | % ILS (dose 40 mg/kg) [%] | Survivors [4] | % ILS (dose 80 mg/kg) [%] | Survivors [5] | % ILS (dose 160 mg/kg) [%] | Survivors [6] | % ILS (dose 320 mg/kg) [%] | Survivors [7] | Best % ILS (best over doses) [%]
N#C[S-].N#C[S-].NCC(=O)CN.[Pd+2] [Comp. Ex. E, Bis(Thiocyanato)diaminoacetonepalladium(II)] | 3 | 0 of 4 | 8 | 0 of 4 | 13 | 0 of 4 | 3 | 0 of 4 | 1 | 0 of 4 | 13 | 0 of 4 |  |  | 
NC1CCCCC1N.O=[N+]([O-])[Pd][N+](=O)[O-] (stereo not drawn) [Comp. Ex. H, Dinitro(1,2-diaminocyclohexane)palladium(II)] |  |  | 12 | 0 of 4 | 3 | 0 of 4 | -3 | 0 of 4 | 21 | 0 of 4 |  |  |  |  | 
N#C[S][Pd-2]1([S]C#N)[NH2+]c2cccc3cccc(c23)[NH2+]1 [Comp. Ex. D, bis(thiocyanato)-1,8-diaminonaphthalenepalladium(II)] |  |  | -11 | 0 of 6 | -9 | 0 of 6 | -11 | 0 of 6 | -19 | 0 of 6 | -28 | 0 of 6 | 48 | 1 of 6 | 
NCCN.O=N[O-].O=N[O-].[Pd+2] [Comp. Ex. F, Dinitro(Ethylenediamine)palladium(II)] |  |  | 2 | 0 of 4 | 6 | 0 of 4 | -15 | 0 of 4 | -59 | 0 of 4 | -87 | 0 of 4 |  |  | 
CC1C[NH][Pd]([S]C#N)([S]C#N)[NH]1 (stereo not drawn) [Ex. 2, Bis(Thiocyanato)-1,2-Diaminopropanepalladium(II)] | 16 | 0 of 6 | 13 | 0 of 6 | 17 | 0 of 6 | 59 | 2 of 6 | -21 | 1 of 6 | -74 | 0 of 6 |  |  | 59
Nc1ccccc1N.O=N[O-].O=N[O-].[Pd+2] [Comp. Ex. I, dinitro(o-phenylenediamine)palladium(II)] |  |  | 21 | 0 of 4 | 3 | 0 of 4 | 29 | 1 of 4 | 19 | 0 of 4 |  |  |  |  | 
N#C[S][Pd-2]1([S]C#N)[NH2+]CCC[NH2+]1 [Comp. Ex. A, bis(thiocyanato)-1,3-diaminopropanepalladium(II)] |  |  | 1 | 0 of 4 | 9 | 0 of 4 | -4 | 0 of 4 | -70 | 0 of 4 | -88 | 0 of 4 | -93 | 0 of 4 | 
NCCN.[I-].[I-].[Pd+2] [Comp. Ex. L, Diiodo(ethylenediamine)palladium(II)] | -17 | 0 of 4 | -13 | 0 of 4 | -9 | 0 of 4 | -11 | 0 of 4 | 24 | 0 of 4 | 32 | 1 of 4 |  |  | 

— US4783482A, “Bis(thiocyanato)palladium(II)complexes” (Engelhard Corporation, priority 1985, dated 1988)
